Source: patent US10570179B2, “Substituted urea depsipeptide analogs as activators of the CLPP endopeptidase” (priority 2016, dated 2020)
Numbered stars: 1 amine (or outer) side, 2 acyl side, 3 side chain; on linkers, the order of the positions; unused ones are H or OH. Bridge positions count the residues as written; N and C are the ends. Square brackets hold non-standard residues; d marks the D form. Peptide text beside a SMILES is read from it. * marks the point of attachment. Phe(3-Me) = Cc1cccc(C[C@H](N)C(=O)O)c1; X4 = O=C1CN([*:1])[C@H](C(=O)[*:2])CN1; NH(4-Cl-2-F-phenyl) = Fc1cc(Cl)ccc1N*; Pro(4R-Me) = C[C@H]1CN[C@H](C(=O)O)C1; Hyp = O=C(O)[C@@H]1C[C@@H](O)CN1; aThr = C[C@H](O)[C@H](N)C(=O)O; Pip = O=C(O)[C@@H]1CCCCN1; 4Abz = Nc1ccc(C(=O)O)cc1; X3 = c1cc2c(cc1N*)OCCO2; CO = O=C([*:1])[*:2]

Assays:
[1] = Plasma protein binding, rapid equilibrium dialysis; assay type: in vitro ADME, mouse
Experimental: This assay determines plasma protein binding of a drug/compound and free drug concentration in plasma using rapid equilibrium dialysis, which allow the aqueous component of plasma containing the free drug/compound through a dialysis membrane (MWCO˜8,000).
Solutions were prepared at 10 mM in DMSO. Dulbecco's phosphate buffered saline (DPBS; pH 7.4) was obtained from Invitrogen (Carlsbad, Calif.). Single-Use RED (rapid equilibrium dialysis) device was obtained from Thermo scientific (Rockford, Ill.). Human plasma was obtained from Innovative Research INC (Novi, Michigan, Ill).
Sample preparation for plasma protein binding was modified from Waters' method. (Waters et al. (2008) J. Pharm. Sci. 97(10): 4586-95). The Teflon base plate with the RED inserts (MWCO 8 K) were allowed to use without any pre-condition the membrane inserts. Human plasma was thawed and centrifuged at 1000 rpm for 2 min to remove any particulates. Each compound was prepared at 10 μM in human plasma. This was done by adding 1 μL, of drug solution (10 mM in DMSO) to 1000 μL, of human plasma (0.1% DMSO). Spiked plasma solutions (300 μL) were placed into the sample chamber (indicated by the red ring) and 500 μL, of DPBS into the adjacent chamber. The plate was sealed and incubated at 37° C. on an orbital shaker (100 rpm) for 4 hours. After incubation, the seal was removed from the RED plate and the volume of the insert confirmed—little to no volume change occurred. Aliquots (50 μL) were removed from each side of the insert and dispensed into a 96-well deep plate. An equal volume of blank plasma or DPBS was added to the required wells to create analytically identical sample matrices (matrix matching). To each sample 200 μL, of ACN containing 4 μg/mL warfarin IS was added. All of the plates were sealed and mixed well at 600 rpm for 10 min and were centrifuged at 4000 rpm for 20 min. The supernatants (120 μL) were transferred to analytical plates for analysis by LCMS. Conditions for Waters ACQUITY-UPLC-MS-UV system were described separately. The test compound concentrations were quantified in both buffer and plasma chambers via peak areas relative to the internal standard. The percentage of the test compound bound to plasma was calculated on following equations: % Free=(Concentration buffer chamber/concentration plasma chamber)×100% and % Bound=100%-% Free.

[2] = Plasma stability assay; assay type: in vitro ADME, human
Experimental: The plasma stability property of early drug discovery compounds can influence the in vivo efficacy of the test compounds/drugs. Human and/or mouse plasma degradation is determined using multiple time points to monitor the rate of disappearance of the parent compound during incubation.
Sample preparation for plasma stability was modified from Di et al. (2005) Int. J. Pharm. 297(1-2): 110-119. A set of incubation times of 0, 3, 24, and 48 hour were used. DMSO stock solutions of test compounds were prepared at 10 mM concentration. 1.8 μL of each test compound was each added directly to 1.8 mL of human/mouse plasma to get the final concentration of 10 μM. This compound/matrix was mixed and 70 μL was transferred to 8 time points plates (each in triplicate wells). For the Time 0 plate, 210 μL of cold acetonitrile with internal standard (4 μg/mL warfarin) was added to each well and no incubation needed. For other seven time points' plate, the plate was incubated at 37° C. for required time, followed by quenching of the reaction by adding 210 μL of cold acetonitrile with internal standard (4 μg/ml warfarin) to each well. All of the plates were sealed and mixed well at 600 rpm for 10 min and were centrifuged at 4000 rpm for 20 min. The supernatants (120 μL) were transferred to analytical plates for analysis by LCMS. Conditions for Waters ACQUITY-UPLC-MS-UV system was described separately. The plasma stability was evaluated via the half-life from least-squares fit of the multiple time points based on first-order kinetics.

[3] = plasma stability half-life, human plasma, 37° C.

Row | Compound | Mouse ([1]; plasma binding, % Bound, mouse plasma) [%] | Human [2, 3] [h] | Mouse ([1]; mouse, 4 h, 10 μM, pH 7.4) [%] | Human ([2]; human, 10 μM) [h]
1 | Cc1ccc(NC(=O)N[C@@H](Cc2cccc(C)c2)C(=O)N[C@H]2COC(=O)[C@@H]3C[C@H](C)CN3C(=O)[C@H](C)NC(=O)[C@@H]3CCCCN3C(=O)[C@@H]3CCCN3C2=O)cc1 (stereo in doubt) [Compound 43, (S)—N-((2S,6S,8AS,14AS,20S,23AS)-2,6-DIMETHYL-5,8,14,19,23-PENTAOXOOCTADECAHYDRO-1H,5H,14H,19H-PYRIDO[2,1-I]DIPYRROLO[2,1-C:2′,1′-L][1]OXA[4,7,10,13]TETRAAZACYCLOHEXADECIN-20-YL)-3-(M-TOLYL)-2-(3-(P-TOLYL)UREIDO)PROPANAMIDE] | 61.7 ± 1.6 | >50 |  | 
2 | Cc1cccc(C[C@H](NC(=O)Nc2ccc(Cl)cc2F)C(=O)N[C@@H]2C(=O)N3CCC[C@H]3C(=O)N3CC(=O)NC[C@H]3C(=O)N[C@@H](C)C(=O)N3C[C@H](C)C[C@H]3C(=O)O[C@H]2C)c1 [Compound 20, (S)-2-(3-(4-CHLORO-2-FLUOROPHENYL)UREIDO)-3-(M-TOLYL)-N-((6AS,12S,13S,15AS,17R,21S,23AS)-13,17,21-TRIMETHYL-3,6,11,15,20,23-HEXAOXOOCTADECAHYDRO-2H,6H,11H,15H-PYRAZINO[2,1-I]DIPYRROLO[2,1-C:2′,1′-L][1]OXA[4,7,10,13]TETRAAZACYCLOHEXADECIN-12-YL)PROPANAMIDE] ({NH(4-Cl-2-F-phenyl)-CO}-[Phe(3-Me)][aThr]P[X4]A[Pro(4R-Me)]; ester 2-C) |  |  | 98.7 ± 0.1 | 14.0
3 | Cc1cccc(C[C@H](NC(=O)Nc2ccc3c(c2)OCCO3)C(=O)N[C@@H]2C(=O)N3CCC[C@H]3C(=O)N3CCCC[C@H]3C(=O)N[C@@H](C)C(=O)N3C[C@H](C)C[C@H]3C(=O)O[C@H]2C)c1 [Compound 21, (S)-2-(3-(2,3-DIHYDROBENZO[B][1,4]DIOXIN-6-YL)UREIDO)-3-(M-TOLYL)-N-((2R,6S,8AS,14AS,20S,21S,23AS)-2,6,21-TRIMETHYL-5,8,14,19,23-PENTAOXOOCTADECAHYDRO-1H,5H,14H,19H-PYRIDO[2,1-I]DIPYRROLO[2,1-C:2′,1′-L][1]OXA[4,7,10,13]TETRAAZACYCLOHEXADECIN-20-YL)PROPANAMIDE] ({X3-CO}-[Phe(3-Me)][aThr]P[Pip]A[Pro(4R-Me)]; ester 2-C) |  |  | 99.2 ± 0.1 | >50
4 | Cc1cccc(C[C@H](NC(=O)Nc2ccc3c(c2)OCCO3)C(=O)N[C@H]2COC(=O)[C@@H]3C[C@@H](C)CN3C(=O)[C@H](C)NC(=O)[C@@H]3CCCCN3C(=O)[C@@H]3CCCN3C2=O)c1 [Compound 22, (S)-2-(3-(2,3-DIHYDROBENZO[B][1,4]DIOXIN-6-YL)UREIDO)-N-((2R,6S,8AS,14AS,20S,23AS)-2,6-DIMETHYL-5,8,14,19,23-PENTAOXOOCTADECAHYDRO-1H,5H,14H,19H-PYRIDO[2,1-I]DIPYRROLO[2,1-C:2′,1′-L][1]OXA[4,7,10,13]TETRAAZACYCLOHEXADECIN-20-YL)-3-(M-TOLYL)PROPANAMIDE] |  |  | 98.4 ± 0.1 | >50
5 | CCOC(=O)c1ccc(NC(=O)N[C@@H](Cc2cccc(C)c2)C(=O)N[C@@H]2C(=O)N3C[C@H](O)C[C@H]3C(=O)N3CCCC[C@H]3C(=O)N[C@@H](C)C(=O)N3C[C@H](C)C[C@H]3C(=O)O[C@H]2C)cc1 [Compound 36, ETHYL 4-(3-((S)-1-(((2R,6S,8AS,14AS,16R,20S,21S,23AS)-16-HYDROXY-2,6,21-TRIMETHYL-5,8,14,19,23-PENTAOXOOCTADECAHYDRO-1H,5H,14H,19H-PYRIDO[2,1-I]DIPYRROLO[2,1-C:2′,1′-L][1]OXA[4,7,10,13]TETRAAZACYCLOHEXADECIN-20-YL)AMINO)-1-OXO-3-(M-TOLYL)PROPAN-2-YL)UREIDO)BENZOATE] ({OEt-4Abz-CO}-[Phe(3-Me)][aThr][Hyp][Pip]A[Pro(4R-Me)]; ester 2-C) |  | 57.50 |  | 
